# Measured values published in patent US20050279350A1, “Methods and apparatus for relieving headaches, rhinitis and other common ailments” (priority 1999, published 2005).
# Like-named read-outs stand apart in the source and are kept apart here. Marks after values point to notes of the source that are not given here.
# What was measured:
# human subjects = test: Effective and maximum tolerable nasal and oral carbon dioxide flow rates measured with laboratory apparatus; type: in vivo
# From the text: (§1) The test device was a hand-held, multi-dose, disposable, dispenser that was approximately 3 to 4 inches long and 6/8 to ⅞ inches in diameter constructed as described above. The device consisted of a plastic twist-top flow regulator mounted on top of a pressurized steel cartridge containing liquid carbon dioxide. The tip of the flow regulator has a nosepiece that is the optimal size and configuration to place against and seal off a nostril for administration of the gas. In a number of subjects, the effective nasal and oral carbon dioxide flow rates, and maximum tolerable nasal and oral flow rates, were measured using a laboratory apparatus. This apparatus consisted of a flow regulator connected via tubing to a flow meter and a large tank of carbon dioxide. These flow data were used, together with the number of seconds gas was administered during therapy, to calculate the estimated dose of gas in milliliters.
# Initially, the effective nasal and oral, and maximum tolerable nasal and oral carbon dioxide flow rates were measured in seven subjects using a laboratory apparatus. The flow rate selected that is effective or the maximum tolerable rate varies with the individual. At low flow rates, the presence of the carbon dioxide produces a “tingling” sensation similar to that produced during drinking of carbonated beverages that inadvertently enter the nasal passages e.g., “bubbles up the nose”. This is the effective rate and the tingling is a welcome sensation because it usually coincides with immediate relief of symptoms. Above a certain subjectively determined flow rate the sensation becomes unpleasant, which may be described as a “stinging” or “burning” sensation. At a still higher flow rate (maximum tolerable rate), the stinging sensation becomes intolerable and subjects remove the device from their nostril. Also, subjects are more sensitive to the first does of a series for one attack; subsequent doses give less or no sensation. […] The typical effective rate nasally was 1 to 5 ml/sec and 5 to 10 ml/sec orally.
# [1] = system: human subjects with allergies (allergic rhinitis); type: in vivo; conditions: for 24-hr. Recur Rate / After Effects / Symptom Free, Minutes Post-Treatment / Symptom, Relief, Minutes Post-Treatment: moderate, severe; for Est. Rate / Est. Total Dose / Number of Doses / Single Dose Duration / Total Dose / Total Treatment Time: self-selected effective dose
# From the text: as §1
# Of the total of 15 subjects included in the analysis, 11 used the treatment for 35 headaches and 9 subjects used it for 9 allergy attacks. […] subjects treated both headache and allergy but on different days. The subjects included adults, elderly, and children of both sexes in good general health, having mild, moderate, and severe headaches or having allergies to plant, animal, or airborne allergens. The device was used to treat migraine and tension-type headaches, jaw pain, and allergies (allergic rhinitis, with symptoms that included sinus congestion, sneezing, and itchy throat and eyes). There was no limitation on the duration of symptoms before treatment with the device. Subjects with no prior use of the device and those who have used it (to treat allergy symptoms) previously were included.
# Carbon dioxide (100%) was administered nasally by the subject for a few seconds via a nostril to fill the nasal passages while holding their breath, or taking breaths of room air occasionally if the dose was lengthy. The gas exited the other nostril. Such nasal administration is similar to presently marketed nasal inhalers except that the administered gas was not inhaled. […] Subjects took as many doses as they needed for relief. It is important to note that there were no number of doses, duration of dose, time between doses, or gas flow rate specified for the user. Subjects chose their own regimen for symptom relief. Similarly, in medical practice today, gas therapy is a “titrate to effect” therapy without a specified dosage.
# For allergy, the rating of the intensity level depends on the extent to which the allergy interferes with the ability to function. […] The same outcome measures as for headache were used for allergy.
# [2] = subject five, experience w/device 0
# [3] = subject four, experience w/device 0
# [4] = subject one, experience w/device >1000
# [5] = subject six, experience w/device 0
# [6] = subject three, experience w/device >1000
# [7] = subject two, experience w/device 0
# [8] = subject, experience w/device >10
# [9] = Allergy (N = 8), more stringent outcome measure definitions
# [10] = Allergy (N = 8), more stringent outcome measure definitions, 1 min post-treatment
# [11] = Allergy (N = 8), more stringent outcome measure definitions, 5 min post-treatment
# [12] = Allergy (N = 8), more stringent outcome measure definitions, 15 min post-treatment
# [13] = Allergy (N = 8), more stringent outcome measure definitions, 30 min post-treatment
# [14] = Allergy (N = 9), mild, 1 min post-treatment
# [15] = Allergy (N = 9), mild, 5 min post-treatment
# [16] = Allergy (N = 9), mild, 15 min post-treatment
# [17] = Allergy (N = 9), mild, 30 min post-treatment
compound,measurement,setting,value
O=C=O [carbon dioxide],"tolerance of high flow rates, oral versus nasal",human subjects; seven subjects,better tolerated orally than nasally
same,Effective Nasal Rate,human subjects; [2],1 to 2 mL/s
same,Effective Oral Rate,human subjects; [2],5 to 10 mL/s
same,Max Tolerable Nasal Rate,human subjects; [2],3 mL/s
same,Max Tolerable Oral Rate,human subjects; [2],>10* ml/sec
same,Effective Nasal Rate,human subjects; [3],2 mL/s
same,Effective Oral Rate,human subjects; [3],2 mL/s
same,Max Tolerable Nasal Rate,human subjects; [3],4 mL/s
same,Max Tolerable Oral Rate,human subjects; [3],>10* ml/sec
same,Effective Nasal Rate,human subjects; [4],4 to 5 mL/s
same,Effective Oral Rate,human subjects; [4],5 to 10 mL/s
same,Max Tolerable Nasal Rate,human subjects; [4],10 mL/s
same,Max Tolerable Oral Rate,human subjects; [4],>10* ml/sec
same,Effective Nasal Rate,human subjects; [5],<1 mL/s
same,Effective Oral Rate,human subjects; [5],5 to 10 mL/s
same,Max Tolerable Nasal Rate,human subjects; [5],2 mL/s
same,Max Tolerable Oral Rate,human subjects; [5],>10* ml/sec
same,Effective Nasal Rate,human subjects; [6],4 to 5 mL/s
same,Effective Oral Rate,human subjects; [6],5 to 10 mL/s
same,Max Tolerable Nasal Rate,human subjects; [6],10 mL/s
same,Max Tolerable Oral Rate,human subjects; [6],>10* ml/sec
same,Effective Nasal Rate,human subjects; [7],<1 mL/s
same,Effective Oral Rate,human subjects; [7],>10* ml/sec
same,Max Tolerable Nasal Rate,human subjects; [7],<1 mL/s
same,Max Tolerable Oral Rate,human subjects; [7],>10* ml/sec
same,Effective Nasal Rate,human subjects; [8],4 to 5 mL/s
same,Effective Oral Rate,human subjects; [8],5 to 10 mL/s
same,Max Tolerable Nasal Rate,human subjects; [8],10 mL/s
same,Max Tolerable Oral Rate,human subjects; [8],>10* ml/sec
same,24-hr. Recur Rate,[1]; [9],50%
same,After Effects,[1]; [9],0%
same,"Symptom Free, Minutes Post-Treatment",[1]; [10],25%
same,"Symptom, Relief, Minutes Post-Treatment",[1]; [10],25%
same,"Symptom Free, Minutes Post-Treatment",[1]; [11],63%
same,"Symptom, Relief, Minutes Post-Treatment",[1]; [11],75%
same,"Symptom Free, Minutes Post-Treatment",[1]; [12],88%
same,"Symptom, Relief, Minutes Post-Treatment",[1]; [12],100%
same,"Symptom Free, Minutes Post-Treatment",[1]; [13],88%
same,"Symptom, Relief, Minutes Post-Treatment",[1]; [13],100%
same,After Effects,"[1]; Allergy (N = 9), mild",0%
same,"Symptom Free, Minutes Post-Treatment",[1]; [14],33%
same,"Symptom, Relief, Minutes Post-Treatment",[1]; [14],33%
same,"Symptom Free, Minutes Post-Treatment",[1]; [15],67%
same,"Symptom, Relief, Minutes Post-Treatment",[1]; [15],78%
same,"Symptom Free, Minutes Post-Treatment",[1]; [16],89%
same,"Symptom, Relief, Minutes Post-Treatment",[1]; [16],100%
same,"Symptom Free, Minutes Post-Treatment",[1]; [17],89%
same,"Symptom, Relief, Minutes Post-Treatment",[1]; [17],100%
same,24-hr. Recur Rate,"[1]; Allergy (N = 9), mild, N=4 for this determination",50%
same,Est. Rate,[1]; Allergy-All,3 mL/s
same,Est. Total Dose,[1]; Allergy-All,133 mL
same,Number of Doses,[1]; Allergy-All,2 #
same,Single Dose Duration,[1]; Allergy-All,13 s
same,Total Dose,[1]; Allergy-All,39 s
same,Total Treatment Time,[1]; Allergy-All,5 min
same,Est. Rate,[1]; Allergy-Mild,5 mL/s
same,Est. Total Dose,[1]; Allergy-Mild,200 mL
same,Number of Doses,[1]; Allergy-Mild,2 #
same,Single Dose Duration,[1]; Allergy-Mild,15 s
same,Total Dose,[1]; Allergy-Mild,40 s
same,Total Treatment Time,[1]; Allergy-Mild,>0.7 min
same,Est. Rate,[1]; Allergy-Moderate,2 mL/s
same,Est. Total Dose,[1]; Allergy-Moderate,31 mL
same,Number of Doses,[1]; Allergy-Moderate,2 #
same,Single Dose Duration,[1]; Allergy-Moderate,3 s
same,Total Dose,[1]; Allergy-Moderate,16 s
same,Total Treatment Time,[1]; Allergy-Moderate,>0.2 min
same,Est. Rate,[1]; Allergy-Severe,4 mL/s
same,Est. Total Dose,[1]; Allergy-Severe,156 mL
same,Number of Doses,[1]; Allergy-Severe,2 #
same,Single Dose Duration,[1]; Allergy-Severe,17 s
same,Total Dose,[1]; Allergy-Severe,46 s
same,Total Treatment Time,[1]; Allergy-Severe,>3.9 min
same,efficacy,"[1]; allergic rhinitis, occurring in seconds to minutes",88-100%
same,adverse after effects of treatment,[1]; allergy subjects,No subjects reported any adverse after effects
same,onset of symptom relief,"[1]; allergy, while administering the first dose",immediate onset of symptom relief within seconds
same,oral versus nasal administration,"[1]; oral administration via pursed lips, allergic inflammation extending into the oral cavity",more effective
same,time of recurrence of allergy symptoms post-treatment,[1]; recurrences,≥ 3 h
